This note sets out measurements from patent US11814444B2, “Cyclic polypeptides for PCSK9 inhibition” (Ra Pharmaceuticals, Inc., priority 2018, dated 2023).

pIC50: −log10 of the molar value. Numbered stars: 1 amine (or outer) side, 2 acyl side, 3 side chain; on linkers, the order of the positions; unused ones are H or OH. Bridge positions count the residues as written; N and C are the ends. Square brackets hold non-standard residues; d marks the D form. Peptide text beside a SMILES is read from it. Phe(4-guanidino) = N=C(N)Nc1ccc(C[C@H](N)C(=O)O)cc1; Trp(7-aza) = N[C@@H](Cc1c[nH]c2ncccc12)C(=O)O; Gly(piperidin-4-yl) = N[C@H](C(=O)O)C1CCNCC1; Leu(3R-OH) = CC(C)[C@@H](O)[C@H](N)C(=O)O; dBip = N[C@H](Cc1ccc(-c2ccccc2)cc1)C(=O)O; X1 = C[C@@](N[*:1])(C(=O)[*:2])c1ccccc1; mXylylene = c1cc(C[*:1])cc(C[*:2])c1; 2Pal = N[C@@H](Cc1ccccn1)C(=O)O; 3Pal = N[C@@H](Cc1cccnc1)C(=O)O; Tle = CC(C)(C)[C@H](N)C(=O)O; Iva = CC[C@](C)(N)C(=O)O; Ac5c = NC1(C(=O)O)CCCC1; Nva = CCC[C@H](N)C(=O)O; Thp = NC1(C(=O)O)CCOCC1; Aib = CC(C)(N)C(=O)O; Mpa = O=C(O)CCS

Test [1] has as its target PCSK9 (Homo sapiens, UniProt Q8NBP7). In words: PCSK9 Alexa FRET Standard assay (displacement of AlexaFluor647 tagged cyclic peptide Reagent A). The format is binding. The settings on record: 0.5 nM PCSK9, 20 nM AF cyclic peptide Reagent A. How it is done: A solution containing 1 nM biotinylated PCSK9+2.5 nM Lance Streptavidin Europium (Strep-Eu) was made in 50 mM HEPES pH 7.4, 0.15 M NaCl, 5 mM CaCl2), 0.01% BSA, and 0.01% Surfactant P20. A separate solution containing 40 nM of the AlexaFluor tagged cyclic peptide was made in the same buffer system. An Echo was used to transfer 0.750 ul of compound to an assay plate followed by the addition of 15 ul of PCSK9+Stept-Eu and 15 ul of AF peptide. The final assay volume was 30.750 ul containing 0.5 nM PCSK9, 1.25 nM Strep-Eu, and 20 nM AF cyclic peptide. The reaction was incubated at room temperature for at least two hours prior to fluorescence measurements using an Envision Multilabel Reader. IC50 values were determined by fitting data to a sigmoidal dose-response curve using nonlinear regression. Ki was then calculated from the IC50 and the KD of AF cyclic peptide. Counts (B-counts) of the europium-labeled PCSK9 were followed to observe if compounds were […]. A fall off of the B-counts likely indicated a false positive of inhibition. Data from this procedure was reported as “A=‘numerical value’ (nanomolar)”

The target of test [2] is human PCSK9 / human LDLR EGFa domain interaction (Homo sapiens, UniProt Q8NBP7). In words: TR-FRET assay of inhibition of the PCSK9-LDLR protein-protein interaction. The settings on record: 20 nM avitag-biotinylated human PCSK9, 20 nM his-tagged human LDLR EGFa domain, 2 hours, room temperature. The class given is binding. How it is done:
A time-resolved fluorescence resonance energy (TR-FRET) assay was used to measure inhibition of the PCSK9-LDLR protein-protein interaction. Briefly, 20 nM avitag-biotinylated human PCSK9 was incubated with 20 nM his-tagged human LDLR EGFa domain in the presence of 5 nM LANCE Ulight Streptavidin (Perkin Elmer) and 5 nM europium-Anti-6×His (Perkin Elmer) for 2 hours covered at room temperature in buffer containing 50 mM HEPES, 150 mM NaCl, 5 mM CaCl2), 0.01% BSA and 0.01% Surfactant P20. Compounds were tested in dose-response and concentrations giving half-maximal inhibition calculated using a 4-parameter fit equation.

human PCSK9 / human LDLR EGFa domain interaction, sequence (Q8NBP7 153-692): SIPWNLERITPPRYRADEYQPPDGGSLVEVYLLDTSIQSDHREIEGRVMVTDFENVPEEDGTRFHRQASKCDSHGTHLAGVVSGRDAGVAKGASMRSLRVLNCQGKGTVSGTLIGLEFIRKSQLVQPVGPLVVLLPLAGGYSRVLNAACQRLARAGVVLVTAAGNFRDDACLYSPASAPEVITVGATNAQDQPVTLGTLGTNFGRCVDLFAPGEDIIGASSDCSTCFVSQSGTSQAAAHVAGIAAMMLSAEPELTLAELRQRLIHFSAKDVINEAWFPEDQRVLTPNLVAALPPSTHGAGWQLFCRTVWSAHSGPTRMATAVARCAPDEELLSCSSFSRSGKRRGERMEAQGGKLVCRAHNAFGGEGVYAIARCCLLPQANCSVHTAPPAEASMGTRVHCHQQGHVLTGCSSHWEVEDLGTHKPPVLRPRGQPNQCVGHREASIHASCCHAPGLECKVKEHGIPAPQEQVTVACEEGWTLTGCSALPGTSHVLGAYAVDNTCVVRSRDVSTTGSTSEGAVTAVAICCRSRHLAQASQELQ
human PCSK9 / human LDLR EGFa domain interaction, sequence (Q8NBP7 31-152 partner limits assumed): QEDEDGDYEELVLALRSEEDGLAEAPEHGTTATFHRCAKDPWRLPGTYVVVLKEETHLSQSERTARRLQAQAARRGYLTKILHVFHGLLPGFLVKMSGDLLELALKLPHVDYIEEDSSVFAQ
PCSK9, sequence (Q8NBP7 153-692): as the sequence (Q8NBP7 153-692) above

Turning to `CCC[C@@H]1NC(=O)[C@H](Cc2c[nH]c3ncccc23)NC(=O)[C@H]([C@@H](C)O)NC(=O)C(C)(C)NC(=O)[C@H](Cc2ccc(O)cc2)NC(=O)[C@H](C(C)(C)C)NC(=O)CCSCc2cccc(c2)CSC[C@@H](C(N)=O)NC(=O)[C@H]([C@@H](C)O)NC(=O)[C@H](CCC)NC(=O)[C@H](Cc2ccc(O)cc2)NC(=O)[C@H](CCC(=O)O)NC1=O` [Compound 005] ([Mpa][Tle]Y[Aib]T[Trp(7-aza)][Nva]EY[Nva]TC-NH2; linker 1-12 via mXylylene), the pIC50 in test [1] was 4.30 to 4.68.
The same measure, in the same setting: for `CCC[C@@H]1NC(=O)[C@H](Cc2c[nH]c3ncccc23)NC(=O)[C@H]([C@@H](C)O)NC(=O)[C@H](Cc2cccnc2)NC(=O)[C@H](Cc2ccc(O)cc2)NC(=O)[C@H](C(C)(C)C)NC(=O)CCSCc2cccc(c2)CSC[C@@H](C(N)=O)NC(=O)[C@H]([C@@H](C)O)NC(=O)[C@H](CCC)NC(=O)[C@H](Cc2ccc(O)cc2)NC(=O)[C@H](CCC(=O)O)NC1=O` [Compound 113] ([Mpa][Tle]Y[3Pal]T[Trp(7-aza)][Nva]EY[Nva]TC-NH2; linker 1-12 via mXylylene) the value was 4.00 to 4.30.
For the compound `CCC[C@@H]1NC(=O)[C@H](Cc2c[nH]c3ncccc23)NC(=O)[C@H]([C@@H](C)O)NC(=O)[C@H](Cc2ccccn2)NC(=O)[C@H](Cc2ccc(O)cc2)NC(=O)[C@H](C(C)(C)C)NC(=O)CCSCc2cccc(c2)CSC[C@@H](C(N)=O)NC(=O)[C@H]([C@@H](C)O)NC(=O)[C@H](CCC)NC(=O)[C@H](Cc2ccc(O)cc2)NC(=O)[C@H](CCC(=O)O)NC1=O` [Compound 114] ([Mpa][Tle]Y[2Pal]T[Trp(7-aza)][Nva]EY[Nva]TC-NH2; linker 1-12 via mXylylene), in test [1], the negative-log IC50 (pIC50) was 4.30 to 4.68.
The same measure, in the same setting: for `CCC[C@H](NC(C)=O)C(=O)N[C@H]1CSCc2cccc(c2)CSC[C@@H](C(N)=O)NC(=O)[C@H]([C@@H](C)O)NC(=O)[C@H](CCC)NC(=O)[C@H](Cc2ccc(O)cc2)NC(=O)[C@H](CCC(=O)O)NC(=O)[C@H](CCC)NC(=O)[C@H](C)NC(=O)[C@H]([C@@H](C)O)NC(=O)[C@H](Cc2cnc[nH]2)NC(=O)[C@H](Cc2ccc(O)cc2)NC(=O)[C@H](C(C)(C)C)NC1=O` [Compound 230] (Ac-[Nva]C[Tle]YHTA[Nva]EY[Nva]TC-NH2; linker 2-13 via mXylylene) the value was 4.00 to 4.30.
On the same count and under the same terms, as for `CC(=O)N[C@H]1CSCc2cccc(c2)CSC[C@@H](C(N)=O)NC(=O)[C@H]([C@@H](C)O)NC(=O)[C@H](C)NC(=O)[C@H](Cc2ccc(O)cc2)NC(=O)[C@H](CCC(=O)O)NC(=O)[C@H](C)NC(=O)[C@H](Cc2c[nH]c3ncccc23)NC(=O)[C@H]([C@@H](C)O)NC(=O)[C@H](Cc2c[nH]cn2)NC(=O)[C@H](Cc2ccc(O)cc2)NC(=O)[C@H](C(C)(C)C)NC1=O` [Compound 242] (Ac-C[Tle]YHT[Trp(7-aza)]AEYATC-NH2; linker 1-12 via mXylylene), the figure is 4.68 to 6.00.
As for `CCC[C@@H]1NC(=O)[C@H](Cc2c[nH]c3ncccc23)NC(=O)[C@H](CC(N)=O)NC(=O)[C@H](Cc2c[nH]cn2)NC(=O)[C@H](Cc2ccc(O)cc2)NC(=O)[C@H](C(C)(C)C)NC(=O)CCSCc2cccc(c2)CSC[C@@H](C(N)=O)NC(=O)[C@H]([C@@H](C)O)NC(=O)[C@H](CCC)NC(=O)[C@H](Cc2ccc(O)cc2)NC(=O)[C@H](CCC(=O)O)NC1=O` [Compound 287] ([Mpa][Tle]YHN[Trp(7-aza)][Nva]EY[Nva]TC-NH2; linker 1-12 via mXylylene), the pIC50 in test [2] was 6.00 to 7.00.
In turn, `CCC[C@@H]1NC(=O)[C@H](Cc2ccc(O)cc2)NC(=O)[C@H](CCC(=O)O)NC(=O)[C@](C)(CC)NC(=O)[C@H](Cc2c[nH]c3ncccc23)NC(=O)[C@H]([C@@H](C)O)NC(=O)[C@H](Cc2c[nH]cn2)NC(=O)[C@H](Cc2ccc(O)cc2)NC(=O)[C@H](C(C)(C)C)NC(=O)CCSCc2cccc(c2)CSC[C@@H](C(N)=O)NC(=O)[C@H]([C@@H](C)O)NC1=O` [Compound 291] ([Mpa][Tle]YHT[Trp(7-aza)][Iva]EY[Nva]TC-NH2; linker 1-12 via mXylylene) gave a negative logarithm of the IC50 (pIC50) in test [2] of 6.00 to 7.00.
Turning to `C[C@@H](O)[C@@H]1NC(=O)[C@H](Cc2c[nH]cn2)NC(=O)[C@H](Cc2ccc(O)cc2)NC(=O)[C@H](C(C)(C)C)NC(=O)CCSCc2cccc(c2)CSC[C@@H](C(N)=O)NC(=O)[C@H]([C@@H](C)O)NC(=O)[C@](C)(c2ccccc2)NC(=O)[C@H](Cc2ccc(O)cc2)NC(=O)[C@H](CCC(=O)O)NC(=O)C(C)(C)NC(=O)[C@H](Cc2c[nH]c3ncccc23)NC1=O` [Compound 293] ([Mpa][Tle]YHT[Trp(7-aza)][Aib]EY[X1]TC-NH2; linker 1-12 via mXylylene), the pIC50 in test [2] is 7.00 to 9.00.
Still for that read-out and setting: as for `CCC[C@@H]1NC(=O)[C@H](Cc2ccc(O)cc2)NC(=O)[C@H](CCC(=O)O)NC(=O)C2(CCCC2)NC(=O)[C@H](Cc2c[nH]c3ncccc23)NC(=O)[C@H]([C@@H](C)O)NC(=O)[C@H](Cc2c[nH]cn2)NC(=O)[C@H](Cc2ccc(O)cc2)NC(=O)[C@H](C(C)(C)C)NC(=O)CCSCc2cccc(c2)CSC[C@@H](C(N)=O)NC(=O)[C@H]([C@@H](C)O)NC1=O` [Compound 299] ([Mpa][Tle]YHT[Trp(7-aza)][Ac5c]EY[Nva]TC-NH2; linker 1-12 via mXylylene), the figure is 6.00 to 7.00.
Same read-out and setting: as for `CCC[C@@H]1NC(=O)[C@H](Cc2ccc(O)cc2)NC(=O)[C@H](CCC(=O)O)NC(=O)C2(CCOCC2)NC(=O)[C@H](Cc2c[nH]c3ncccc23)NC(=O)[C@H]([C@@H](C)O)NC(=O)[C@H](Cc2c[nH]cn2)NC(=O)[C@H](Cc2ccc(O)cc2)NC(=O)[C@H](C(C)(C)C)NC(=O)CCSCc2cccc(c2)CSC[C@@H](C(N)=O)NC(=O)[C@H]([C@@H](C)O)NC1=O` [Compound 300] ([Mpa][Tle]YHT[Trp(7-aza)][Thp]EY[Nva]TC-NH2; linker 1-12 via mXylylene), the figure is 6.00 to 7.00; as for `CCC[C@@H]1NC(=O)[C@H](Cc2c[nH]c3ncccc23)NC(=O)[C@H]([C@H](O)C(C)C)NC(=O)[C@H](Cc2c[nH]cn2)NC(=O)[C@H](Cc2ccc(O)cc2)NC(=O)[C@H](C(C)(C)C)NC(=O)CCSCc2cccc(c2)CSC[C@@H](C(N)=O)NC(=O)[C@H]([C@@H](C)O)NC(=O)[C@H](CCC)NC(=O)[C@H](Cc2ccc(O)cc2)NC(=O)[C@H](CCC(=O)O)NC1=O` [Compound 305] ([Mpa][Tle]YH[Leu(3R-OH)][Trp(7-aza)][Nva]EY[Nva]TC-NH2; linker 1-12 via mXylylene), 4.68 to 6.00; as for `CCC[C@@H]1NC(=O)[C@H](Cc2c[nH]c3ncccc23)NC(=O)[C@H]([C@@H](C)O)NC(=O)[C@H](Cc2c[nH]cn2)NC(=O)[C@H](Cc2ccc(O)cc2)NC(=O)[C@H](C(C)(C)C)NC(=O)CCSCc2cccc(c2)CSC[C@@H](C(N)=O)NC(=O)[C@H]([C@@H](C)O)NC(=O)[C@H](CCC)NC(=O)[C@H](Cc2ccc(NC(=N)N)cc2)NC(=O)[C@H](CCC(=O)O)NC1=O` [Compound 323] ([Mpa][Tle]YHT[Trp(7-aza)][Nva]E[Phe(4-guanidino)][Nva]TC-NH2; linker 1-12 via mXylylene), 4.68 to 6.00.
Still for that read-out and setting: for `CCC[C@@H]1NC(=O)[C@H](Cc2c[nH]c3ncccc23)NC(=O)[C@H]([C@@H](C)O)NC(=O)[C@H](Cc2c[nH]cn2)NC(=O)[C@H](Cc2ccc(O)cc2)NC(=O)[C@H](C(C)(C)C)NC(=O)CCSCc2cccc(c2)CSC[C@@H](C(N)=O)NC(=O)[C@H]([C@@H](C)O)NC(=O)[C@H](CCC)NC(=O)[C@@H](Cc2ccc(-c3ccccc3)cc2)NC(=O)[C@H](CCC(=O)O)NC1=O` [Compound 325] ([Mpa][Tle]YHT[Trp(7-aza)][Nva]E[dBip][Nva]TC-NH2; linker 1-12 via mXylylene) the value was 6.00 to 7.00.
In turn, `CCC[C@@H]1NC(=O)[C@H](Cc2c[nH]c3ncccc23)NC(=O)[C@H]([C@@H](C)O)NC(=O)[C@H](Cc2c[nH]cn2)NC(=O)[C@H](Cc2ccc(O)cc2)NC(=O)[C@H](C(C)(C)C)NC(=O)CCSCc2cccc(c2)CSC[C@@H](C(N)=O)NC(=O)[C@H]([C@@H](C)O)NC(=O)[C@H](C2CCNCC2)NC(=O)[C@H](Cc2ccc(O)cc2)NC(=O)[C@H](CCC(=O)O)NC1=O` [Compound 331] ([Mpa][Tle]YHT[Trp(7-aza)][Nva]EY[Gly(piperidin-4-yl)]TC-NH2; linker 1-12 via mXylylene) gave a negative logarithm of the IC50 (pIC50) in test [2] of 4.68 to 6.00.
Same read-out and setting: as for `CCC[C@@H]1NC(=O)[C@H](Cc2c[nH]c3ncccc23)NC(=O)[C@H]([C@@H](C)OC)NC(=O)[C@H](Cc2c[nH]cn2)NC(=O)[C@H](Cc2ccc(O)cc2)NC(=O)[C@H](C(C)(C)C)NC(=O)CCSCc2cccc(c2)CSC[C@@H](C(N)=O)NC(=O)[C@H]([C@@H](C)O)NC(=O)[C@H](CCC)NC(=O)[C@H](Cc2ccc(O)cc2)NC(=O)[C@H](CCC(=O)O)NC1=O` [Compound 333] ([Mpa][Tle]YHT(Me)[Trp(7-aza)][Nva]EY[Nva]TC-NH2; linker 1-12 via mXylylene), the figure is 4.68 to 6.00.
